Where two headings read alike, the source gives them in different places. Marks after values point to notes of the source that are not given here.
Experiments:
involucrin (INV) = experiment: Real-time PCR gene expression in NHEK cells: involucrin; type: cell-based, human; conditions: 1 μM, seven days, relative to control = 1.00
Description: (§1) Since glucosyladenosines were confirmed in Experiment 5 to have an action of enhancing the differentiation of keratinocytes effective for skin improvement, a test for examining the change of the expression level of a molecular marker gene of keratinocytes, as an index, was performed as follows using a real-time PCR analysis method to examine the above action in more detail. The expression level of a ceramide-synthesis-related gene was also studied to examine the influence of glucosyladenosines on ceramide synthesis that had been known to have an important role in moisturizing the skin and barrier function of the skin and deemed to be effective for skin improvement. As genes for analysis, profilaggrin (PFG: a later differentiation marker) and involucrin (INV: an early differentiation marker) as differentiation markers of keratinocytes and β-glucocerebrosidase (GCase) and sphingomyelinase (SMase) as ceramide-synthesis-related enzymes were selected, and a gene for cyclophilin B (CypB) as an internal standard upon practicing PCR reaction was used (see FIG. 7). NHEK cells were inoculated to 6-well plate coated with collagen in an amount of 8×10^4 cells/1.5 ml/well, cultured with EpiLife medium, and cultured at 37° C. for two days under a 5 v/v % CO2 condition. Thereafter, the culture medium was removed, and the resulting cells were added with a fresh EpiLife medium containing 5′-glucosyladenosine, 3′-glucosyladenosine, or adenosine in a volume of 1.5 ml/well (giving a final concentration of 1 μM of any one of glucosyladenosines and adenosine), and cultured for seven days while replacing the medium with a fresh one containing any one of glucosyladenosines and adenosine in a volume of 1.5 ml/well every other day. After completion of the culture, each well was washed twice with PBS(K−), followed by adding 0.2 ml/well of 0.025% by mass of trypsin/EDTA solution to the resulting cells and allowing the cells to stand at an ambient temperature for five minutes to detach them from the plates. […]

[1] = target: T1, adenosine deaminase (ADA) (Homo sapiens, UniProt P00813); conditions: 0.5 mM, pH 7.5
T1 sequence (P00813 1-363): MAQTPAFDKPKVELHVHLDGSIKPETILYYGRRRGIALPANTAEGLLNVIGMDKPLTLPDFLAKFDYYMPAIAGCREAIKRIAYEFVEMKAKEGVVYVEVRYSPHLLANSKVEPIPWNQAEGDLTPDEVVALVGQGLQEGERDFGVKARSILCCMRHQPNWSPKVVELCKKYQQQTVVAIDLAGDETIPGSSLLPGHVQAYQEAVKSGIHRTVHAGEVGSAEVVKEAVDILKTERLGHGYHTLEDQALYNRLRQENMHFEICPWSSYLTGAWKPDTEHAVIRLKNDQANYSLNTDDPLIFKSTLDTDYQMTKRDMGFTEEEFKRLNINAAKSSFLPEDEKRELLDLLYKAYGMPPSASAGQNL
Description: Adenosine has been confirmed to be promptly hydrolyzed into inosine and hypoxanthine by adenosine deaminase (ADA) intrinsically present in living bodies. To examine the possibility of sustainably exerting effects by glucosyladenosines as adenosine glycosides, a test for confirming whether 5′- and 3′-glucosyladenosines are hydrolyzed in living bodies was conducted using a cell lysate of a normal human fetal fibroblast as a source for an adenosine metabolism-relatedenzyme. “NHDF cells”, a normal human fetal fibroblast, commercialized by Kurabo Industries, Osaka, Japan (called “NHDF cells”, hereinafter), which had been diluted with “Dulbecco's Modified Eagle Medium “Nissui” (abbreviated as […], hereinafter), a product name of a Dulbecco's Medium Essential Medium, commercialized by Nissui Pharmaceutical Co., Ltd., Tokyo, Japan, containing 10 v/v % fetal calf serum […] (called “FCS”, hereinafter) was inoculated to 150 cm^2 culture flasks (commercialized by Corning, N.Y., USA) in a cell amount of 1.5×10^6 cells/20 ml/flask, and cultured for four days. After removing each culture supernatant, the resulting cells were treated with “Trypsin-EDTA”, a product name of 0.05% by mass of trypsin/EDTA solution, commercialized by Gibco, NY., USA, followed by collecting the cell suspensions from each flask. […] CELL DISROPTOR 185” thrice (30 sec×twice for each) for cell disruption, centrifuged at 15,000 rpm for five minutes to collect supernatants as a cell lysate. 0.9 ml of the cell lysate and 0.1 ml of phosphate buffered saline (PBS), which had been prepared by dissolving either the 5′-glucosyladenosine that had had been prepared in Experiment 1-2 or the 3′-glucosyladenosine that had had been prepared in Experiment 2 to give a concentration of 5 mM, were mixed, stirred, and allowed to react at 37° C. Reaction solutions at reaction times 0, 1, 7 and 24 hours after initiating the reaction were collected, treated with the same method as in Experiment 3, and quantified for adenosine and glucosyladenosines by an HPLC method. Relative values for concentrations of these compounds at respective reaction times were calculated when the concentration at the reaction initiation for each compound was regarded as 100%, and they are shown in Table 3 as residual percentages of adenosine or glucosyladenosines.

[2] = test system: β-glucocerebrosidase (GCase); experiment: Real-time PCR gene expression in NHEK cells: β-glucocerebrosidase; type: cell-based, human; conditions: 1 μM, seven days, relative to control = 1.00
Description: as §1

SMILES | Gene expression level INV (involucrin (INV)) | Remaining percentage ([1]; 0 h) [%] | Remaining percentage ([1]; 1 h) [%] | Remaining percentage ([1]; 7 h) [%] | Remaining percentage ([1]; 24 h) [%] | Gene expression level GCase [2]
Nc1ncnc2c1ncn2[C@@H]1O[C@H](CO[C@H]2O[C@H](CO)[C@@H](O)[C@H](O)[C@H]2O)[C@@H](O)[C@H]1O [5′-Glucosyladenosine, α-D-glucopyranosyl-(1→5′)-adenosine] | 1.66** | 100 | 101 | 100 | 96 | 2.68**
Nc1ncnc2c1ncn2[C@@H]1O[C@H](CO)[C@@H](O)[C@H]1O [Adenosine, reference compound] | 1.15 | 100 | 53 | 0 | 0 | 1.37
Nc1ncnc2c1ncn2[C@@H]1O[C@H](CO)[C@@H](O[C@H]2O[C@H](CO)[C@@H](O)[C@H](O)[C@H]2O)[C@H]1O [3′-Glucosyladenosine, α-D-glucopyranosyl-(1→3′)-adenosine] | 1.52* | 100 | 95 | 86 | 17 | 2.08*

Reference: patent publication US9492368B2, “External preparation for skin” (HAYASHIBARA CO., LTD., priority 2011, dated 2016)
